The values below come from patent publication EP1025226B1, “DNA ENCODING A HUMAN PROTON-GATED ION CHANNEL AND USES THEREOF” (McGill University, priority 1997, dated 1999).

Assay [1] concerns the target T1, human non-inactivating proton-gated ion channel hASIC3 (homomeric channels), SEQ ID No. 2 (Homo sapiens, UniProt Q9UHC3).
T1 sequence (Q9UHC3 1-531): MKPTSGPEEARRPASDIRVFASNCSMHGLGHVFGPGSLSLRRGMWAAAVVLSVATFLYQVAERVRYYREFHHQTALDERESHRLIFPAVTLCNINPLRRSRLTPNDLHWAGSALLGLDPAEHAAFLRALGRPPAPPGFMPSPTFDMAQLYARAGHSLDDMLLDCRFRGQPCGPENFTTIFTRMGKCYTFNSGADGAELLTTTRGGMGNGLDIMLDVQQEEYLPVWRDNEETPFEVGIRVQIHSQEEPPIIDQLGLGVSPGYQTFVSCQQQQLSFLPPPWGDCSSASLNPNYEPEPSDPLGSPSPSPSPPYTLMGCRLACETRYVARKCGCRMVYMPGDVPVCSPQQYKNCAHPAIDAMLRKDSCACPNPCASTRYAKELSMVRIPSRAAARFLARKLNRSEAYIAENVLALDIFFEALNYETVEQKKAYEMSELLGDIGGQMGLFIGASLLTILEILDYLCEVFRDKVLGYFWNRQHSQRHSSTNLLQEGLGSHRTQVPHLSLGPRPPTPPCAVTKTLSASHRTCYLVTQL
Put plainly: Two-electrode voltage clamp of proton-induced currents in Xenopus oocytes expressing the channel. In kind it is cell-based. Particulars: for remaining activity at 100 µM: 100 µM amiloride, currents activated by pH 4.0, mean +/- SEM (n= 17); for inhibition at 100 µM: co-application of 100 micro M amiloride with pH 4.0, biphasic response, hASIC3 in Xenopus oocytes. As to the method: Oocytes surgically removed from adult Xenopus laevis were treated for 2 h at room temperature with type II collagenase (Gibco-BRL) in Barth's solution under constant agitation. Selected oocytes at stage IV-V were defolliculated manually before nuclear micro-injections (Bertrand et al., 1991) of 5 ng of hASlC3 in pcDNA3 vector. After 2-4 days of expression at 19^-C in Barth's solution containing 50Êg/ml gentamycin, currents were recorded in the two-electrode voltage clamp configuration using an OC-725B amplifier (Warner Instruments). Whole cell currents were acquired and digitized at 500 Hz on a Macintosh IIci computer with an A/D NB-MIO16XL interface (National Instruments) then recorded traces were post-filtered at 100 Hz in Axograph (Axon Instruments). Agonist, amiloride and wash solutions were prepared in a modified Ringer's solution containing 115 mM NaCl, 2.5 mM KCI, 1.8 mM CaCl2 in 5-20 mM HEPES (Sigma) buffer adjusted with NaOH or HCl at pH 2 to 8 and applied on oocytes by constant perfusion (10-12 ml/min) at room temperature. Mean values ± SEM corresponded to measurements from a minimum of 5 oocytes.
(In general: Two-electrode voltage clamp is typically applied to oocytes expressing channels or transporters.)

Assay [2] deals with hASIC3 (human non-inactivating amiloride-sensitive proton-gated ion channel subunit) (human). Put plainly: cell-based or functional assay.
The target in assay [3] is rat P2x2 (ATP-gated ion channel subunit) (rat) (UniProt P49653). Put plainly: cell-based or functional assay.
rat P2x2 (ATP-gated ion channel subunit) (rat), sequence (P49653 whole entry): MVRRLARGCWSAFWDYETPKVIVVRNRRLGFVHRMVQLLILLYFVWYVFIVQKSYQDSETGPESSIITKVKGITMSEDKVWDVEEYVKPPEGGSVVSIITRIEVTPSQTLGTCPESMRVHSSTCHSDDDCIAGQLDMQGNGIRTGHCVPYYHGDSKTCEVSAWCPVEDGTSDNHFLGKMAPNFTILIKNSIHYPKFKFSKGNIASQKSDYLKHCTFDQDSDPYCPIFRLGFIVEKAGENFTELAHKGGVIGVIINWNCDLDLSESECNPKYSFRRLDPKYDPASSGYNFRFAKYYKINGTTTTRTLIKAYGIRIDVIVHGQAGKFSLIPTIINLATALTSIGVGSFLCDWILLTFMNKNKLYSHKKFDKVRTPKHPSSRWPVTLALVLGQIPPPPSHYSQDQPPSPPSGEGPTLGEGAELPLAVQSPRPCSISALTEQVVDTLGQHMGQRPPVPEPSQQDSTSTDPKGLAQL

Read-outs that look alike come from different tables or passages of the source.

Take `N=C(N)NC(=O)c1nc(Cl)c(N)nc1N` [amiloride]: the remaining activity at 100 µM was 37.2 ± 6.4% in assay [1] (read-out: residual peak currents during amiloride application, fast component, expressed as percent of controls) and 72 ± 3.8% in assay [1] (read-out: residual peak currents during amiloride application, sustained component, expressed as percent of controls). The inhibition at 100 µM in assay [1] (read-out: blockade of the fast current by amiloride) was 62.8 ± 6.5%; in assay [1] (read-out: blockade of the slow current by amiloride), 28.7 ± 4.6%.
In turn, “hASIC3 (human non-inactivating amiloride-sensitive proton-gated ion channel subunit)” displayed a non-inactivating cationic current induced by strong acid in Xenopus oocytes injected with the hASIC3 clone alone in assay [2] of 4 pH. In assay [3], the inward currents in Xenopus oocytes coinjected with hASIC3 and P2x2 (two-electrode voltage clamp), activating pH worked out at 6.5 pH; the non-inactivating cation current induced by weak acid in Xenopus oocytes coinjected with hASIC3 clone and rat P2x2 clone amounted to 6.5 pH.
